Test results from patent US6699983B1, “Integrin-linked kinase and its uses” (Sunnybrook Health Sciences Centre, priority 1995, dated 2004).

Experiments:
ILK [1] = assay: ILK activation by insulin in IEC-18 cells (immune complex kinase assay, MBP substrate); type: cell-based, rat; conditions: quiescent, serum-starved IEC-18 cells
Method: Assessment of ILK activation by insulin on IEC-18 cells. IEC 18 cells are rat colon epithelial cells that are cultured routinely in α-MEM medium supplemented with insulin (10 mg/liter), glucose 3.6 g/liter, and 5% FCS. When IEC 18 cells are grown to 80% confluence, they are serum starved for 18 hours prior to activation by insulin. Before addition of insulin, media are removed and 4 ml of α-MEM+insulin 6 μM is added to the 100 mm dishes. P13 kinase inhibitors such as LY294002 at 50 μM or wortmannin at 200 nM are added optionally to block P13 kinase dependent ILK activation. At the designated times, dishes are washed 3× with ice cold PBS and cells are lysed in 500 μl lysis buffer: 150 mM NaCI, 1% NP-40, 0.5% sodium deoxycholate, 50 mM Hepes pH 7.5, 10 μg/ml leupeptin, 1 mM PMSF, 2.5 μl aprotinin/mi lysis buffer, NaF 5 mM, Sodium vanadate 1 mM. After assessment of protein concentration by Bradford assay, 500 μl samples containing 200 μg of proteins are incubated for 2 hrs at 4° C. with 20 μl of Protein A-Sepharose to preadsorb the non specific kinases. The lysate is then incubated overnight with 2 μg of rabbit anti ILK antiserum at 4° C. under rotation.
The immunocomplexes are then captured by incubating the lysate with 15 μl of Protein A Sepharose for 2 hrs at 4° C. […] Phosphorylation level of MBP is assessed by phosphorimager analysis or exposure to an X ray film.

ILK [2] = molecular target: T1, ILK (Homo sapiens, UniProt Q13418); assay: Regulation of ILK kinase by phosphoinositides in vitro (ILK5-GST, MBP substrate); type: biochemical; conditions: lipid vesicles with phosphatidylserine and phosphatidylcholine, 30° C.
T1 construct: GST
T1 sequence (Q13418 1-452): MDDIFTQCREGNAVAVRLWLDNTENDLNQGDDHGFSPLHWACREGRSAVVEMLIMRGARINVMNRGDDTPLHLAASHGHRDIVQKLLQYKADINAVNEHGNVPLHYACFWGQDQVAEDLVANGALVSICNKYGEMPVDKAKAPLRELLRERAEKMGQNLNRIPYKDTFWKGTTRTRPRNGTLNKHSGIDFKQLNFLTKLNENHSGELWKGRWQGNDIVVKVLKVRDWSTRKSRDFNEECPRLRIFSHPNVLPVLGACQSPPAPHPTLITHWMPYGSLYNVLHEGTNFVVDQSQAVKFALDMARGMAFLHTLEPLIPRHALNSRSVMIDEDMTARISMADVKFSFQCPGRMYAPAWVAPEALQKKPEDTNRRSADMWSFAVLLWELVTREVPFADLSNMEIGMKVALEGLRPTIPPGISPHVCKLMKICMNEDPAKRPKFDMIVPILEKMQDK
Method: Assessment of regulation of ILK kinase by phosphoinositides. Ptdlns(3)P, Ptdins(3,4)P2 and Ptdlns(3,4,5)P3 were dried under nitrogen and resuspended at 0.1 mM in Hepes 10 mM, pH 7. 0 with phosphatidylserineand phosphatidylcholine, both at 1 mM. The lipid suspensions were vortexed and further sonicated for 20 min in order to generate unilamellar vesicles. 11 μl of ILK5-GST in kinase buffer were combined to 4 μl of lipids and 25 μl of kinase reaction solution containing 2.5 μl of MBP and 5 μCi of γ^32 P-ATP. The reaction proceeded for […] at 30° C. The reaction was stopped by adding an equal volume of 2× sample buffer. The samples were run on a 12% non reducing SDS-PAGE gel.

Substance | stimulation of ILK activity (ILK [1]) | ILK activity in vitro in the presence of phosphoinositide (ILK [2])
insulin | rapidly stimulated | –
phosphatidylinositol (3,4,5) trisphosphate [Ptdlns(3,4,5)P3] | – | stimulated
phosphatidylinositol(3) monophosphate [Ptdlns(3)P] | – | not
phosphatidylinositol(3,4) bisphosphate [Ptdlns(3,4)P2] | – | not
